Test system: NCI-H719 tumor spheroids, viability
Assay: Anticancer human tumor NCI-H719 cell line growth inhibition;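 note: spheroids exposed to compounds for seven days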;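 for viability, T/C: percent viability relative to DMSO vehicle control as 100%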
Details: spheroids with HUVEC and MSC; for IC50: curve of first compound; for viability, T/C: stronger effect = lower value
Summary of the method: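 Single agents and combinations were tested on spheroids built from tumor cells plus HUVEC and hMSC, at half-log dilutions starting at or near clinical Cmax, else 10 microM; final DMSO 0.25% (v/v).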

[1] = second compound 30 pM, first compound 0.00949 µM
[2] = second compound 30 pM, first compound 0.03 µM
[3] = second compound 30 pM, first compound 0.0949 µM
[4] = second compound 30 pM, first compound 0.3 µM
[5] = second compound 30 pM, first compound 0.949 µM
[6] = second compound 30 pM, first compound 3 µM
[7] = second compound 94.9 pM, first compound 0.00949 µM
[8] = second compound 94.9 pM, first compound 0.03 µM
[9] = second compound 94.9 pM, first compound 0.0949 µM
[10] = second compound 94.9 pM, first compound 0.3 µM
[11] = second compound 94.9 pM, first compound 0.949 µM
[12] = second compound 94.9 pM, first compound 3 µM
[13] = second compound 0.0003 µM, first compound 0.00949 µM
[14] = second compound 0.0003 µM, first compound 0.03 µM
[15] = second compound 0.0003 µM, first compound 0.0949 µM
[16] = second compound 0.0003 µM, first compound 0.3 µM
[17] = second compound 0.0003 µM, first compound 0.949 µM
[18] = second compound 0.0003 µM, first compound 3 µM
[19] = second compound 0.000949 µM, first compound 0.00949 µM
[20] = second compound 0.000949 µM, first compound 0.03 µM
[21] = second compound 0.000949 µM, first compound 0.0949 µM
[22] = second compound 0.000949 µM, first compound 0.3 µM
[23] = second compound 0.000949 µM, first compound 0.949 µM
[24] = second compound 0.000949 µM, first compound 3 µM
[25] = second compound 0.003 µM, first compound 0.00949 µM
[26] = second compound 0.003 µM, first compound 0.03 µM
[27] = second compound 0.003 µM, first compound 0.0949 µM
[28] = second compound 0.003 µM, first compound 0.3 µM
[29] = second compound 0.003 µM, first compound 0.949 µM
[30] = second compound 0.003 µM, first compound 3 µM

Compound | IC50 (second compound 30 pM) [nM] | IC50 (second compound 94.9 pM) [nM] | IC50 (second compound 0.0003 µM) [nM] | IC50 (second compound 0.000949 µM) [nM] | IC50 (second compound 0.003 µM) [nM] | viability, T/C [1] [%] | viability, T/C [2] [%] | viability, T/C [3] [%] | viability, T/C [4] [%] | viability, T/C [5] [%] | viability, T/C [6] [%] | viability, T/C [7] [%] | viability, T/C [8] [%] | viability, T/C [9] [%] | viability, T/C [10] [%] | viability, T/C [11] [%] | viability, T/C [12] [%] | viability, T/C [13] [%] | viability, T/C [14] [%] | viability, T/C [15] [%] | other results
CNCc1ccc(-c2cc(-c3nc(-c4ccc(S(=O)(=O)C(C)C)cc4)cnc3N)on2)cc1 + COc1cc2c(cc1O)CCNC21CSC2c3c(OC(C)=O)c(C)c4c(c3C(COC1=O)N1C(O)C3Cc5cc(C)c(OC)c(O)c5C(C21)N3C)OCO4 | 84.2 | < 9.49 | < 9.49 | < 9.49 | < 9.49 | 79.9 | 86.5 | 45 | 15.5 | 10.5 | 1.88 | 34.3 | 29.2 | 14.2 | 8.3 | 9.95 | 0.36 | 8.48 | 25.4 | 8.28 | viability, T/C [16]: 10.4%; viability, T/C [17]: 9.76%; viability, T/C [18]: 0.75%; viability, T/C [19]: 8.38%; viability, T/C [20]: 9.01%; viability, T/C [21]: 8.98%; viability, T/C [22]: 9.91%; viability, T/C [23]: 10.3%; viability, T/C [24]: 0.62%; viability, T/C [25]: 0.5%; viability, T/C [26]: 1.4%; viability, T/C [27]: 0.58%; viability, T/C [28]: 0.82%; viability, T/C [29]: 0.56%; viability, T/C [30]: 1.15%
Cc1sc2c(c1C)C(c1ccc(Cl)cc1)=NC(CC(=O)Nc1ccc(O)cc1)c1nnc(C)n1-2 (stereo not given) + COc1cc2c(cc1O)CCNC21CSC2c3c(OC(C)=O)c(C)c4c(c3C(COC1=O)N1C(O)C3Cc5cc(C)c(OC)c(O)c5C(C21)N3C)OCO4 | 139 | < 9.49 | < 9.49 | < 9.49 | < 9.49 | 77.2 | 90.2 | 69.2 | 11.1 | 3.27 | 2.11 | 34.7 | 33.6 | 35 | 7.23 | 3.48 | 1.41 | 8.51 | 6.28 | 6.64 | viability, T/C [16]: 4.03%; viability, T/C [17]: 1.94%; viability, T/C [18]: 2.8%; viability, T/C [19]: 6.63%; viability, T/C [20]: 6.95%; viability, T/C [21]: 4.47%; viability, T/C [22]: 1.87%; viability, T/C [23]: 1.26%; viability, T/C [24]: 0.53%; viability, T/C [25]: 0.27%; viability, T/C [26]: 0.37%; viability, T/C [27]: 0.18%; viability, T/C [28]: 0.13%; viability, T/C [29]: 0.18%; viability, T/C [30]: 0.31%
Cn1ncnc1[C@H]1c2n[nH]c(=O)c3cc(F)cc(c23)N[C@@H]1c1ccc(F)cc1 + COc1cc2c(cc1O)CCNC21CSC2c3c(OC(C)=O)c(C)c4c(c3C(COC1=O)N1C(O)C3Cc5cc(C)c(OC)c(O)c5C(C21)N3C)OCO4 | < 9.49 | < 9.49 | < 9.49 | < 9.49 | < 9.49 | 13.1 | 10.3 | 8.87 | 10.9 | 8.74 | 6.49 | 8.85 | 7.16 | 8.84 | 7.47 | 7.26 | 7.49 | 9.25 | 8.07 | 9.38 | viability, T/C [16]: 10.2%; viability, T/C [17]: 7.28%; viability, T/C [18]: 7.06%; viability, T/C [19]: 7.36%; viability, T/C [20]: 7.49%; viability, T/C [21]: 7.37%; viability, T/C [22]: 6.85%; viability, T/C [23]: 5.96%; viability, T/C [24]: 4.33%; viability, T/C [25]: 0.57%; viability, T/C [26]: 0.36%; viability, T/C [27]: 0.96%; viability, T/C [28]: 0.6%; viability, T/C [29]: 0.86%; viability, T/C [30]: 0.88%

Reference: PubChem BioAssay AID1845212 (Molecular Pharmacology Branch, DTP, NCI, 2023)
